The numbers were not newly measured in US7713553B2, “Method of manufacture of a liquid pesticide containing copper and a liquid pesticide containing copper” (Genics Inc., priority 2001, dated 2010), which cites them from elsewhere.

Regarding `[Cu+2].[OH-].[OH-]` [copper hydroxide], the solubility in water result is given as “almost insoluble”.
